Experimental data from US20250134109A1, “Antimicrobial, Antiviral and Antifungal Articles and Methods of Producing Such Articles” (Cupron, Inc., priority 2021, published 2025).

Assay: Copper ion release from 1.0μ particles of various copper compounds over exposure cycles
Assay type: physicochemical
Source text: In many embodiments, it is possible to provide ion release rates that are tailored to the specific application. For example, embodiments include articles that comprise first particles having a first ion release rate and second particles having a second ion release rate.
The ion release rates listed may be considered to be an average ion release rate of a plurality of particles or powder having an average particle size of 1 micron also. […]

| Compound | number of exposures in which copper ions are released into a fluid (as shown in Table 1) | Copper ion release from 1.0μ particles (exposure cycle 0) [ppm] | Copper ion release from 1.0μ particles (exposure cycle 5) [ppm] | Copper ion release from 1.0μ particles (exposure cycle 10) [ppm] | Copper ion release from 1.0μ particles (exposure cycle 15) [ppm] | Copper ion release from 1.0μ particles (exposure cycle 20) [ppm] | Copper ion release from 1.0μ particles (exposure cycle 25) [ppm] | Copper ion release from 1.0μ particles (exposure cycle 30) [ppm] | Copper ion release from 1.0μ particles (exposure cycle 35) [ppm] | Copper ion release from 1.0μ particles (exposure cycle 40) [ppm] | Copper ion release from 1.0μ particles (exposure cycle 45) [ppm] | Copper ion release from 1.0μ particles (exposure cycle 50) [ppm] |
| --- | --- | --- | --- | --- | --- | --- | --- | --- | --- | --- | --- | --- |
| O=S(=O)([O-])[O-].[Cu+2] [CuSO4, copper sulfate] | less than five exposures | 100.0 | 0.0 | 0.0 | 0.0 | 0.0 | 0.0 | 0.0 | 0.0 | 0.0 | 0.0 | 0.0 |
| [Cu+].[I-] [Cul, cuprous iodide] |  | 6.0 | 3.0 | 1.5 | 0.7 | 0.4 | 0.2 | 0.1 | 0.0 | 0.0 | 0.0 | 0.0 |
| copper sulfide [Cu2S] |  | 0.5 | 0.5 | 0.5 | 0.5 | 0.5 | 0.5 | 0.5 | 0.5 | 0.5 | 0.5 | 0.5 |
| cuprous thiocyanate [CuSCN] |  | 4.0 | 2.7 | 1.8 | 1.3 | 0.9 | 0.6 | 0.4 | 0.3 | 0.2 | 0.1 | 0.0 |
